Experimental findings from patent US8933228B2, “Respiratory formulations and compounds for use therein” (Respivert, Ltd., priority 2010, dated 2015) are described below.

Data set [1] deals with IL-8 release in d-U937 cells. The data set can be described thus: LPS-induced IL-8 release in d-U937 cells. It counts as cell-based. Particulars: Homo sapiens, dU937; d-U937 cells, LPS 0.1 μg/mL, 4 hr; read-out: d-U937 (LPS) IL-8 IC50. The method, boiled down:
(§1)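 U937 cells made macrophage-like by 48–72 h with PMA (100 ng/mL), then stimulated with LPS (E. coli O111:B4) for 4 h. Supernatant TNFα and IL-8 measured by sandwich ELISA; inhibition versus vehicle control at each concentration, REC50 from concentration-response curve.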

Data set [2] concerns ICAM-1 expression in BEAS2B cells. Briefly: Poly I:C-induced ICAM-1 induction in BEAS2B cells. It counts as cell-based. Particulars: Homo sapiens, BEAS-2B; BEAS2B cells, poly I:C 1 μg/mL, 18 hr; read-out: BEAS2B (polyIC) ICAM1 IC50. In a few lines: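 Human bronchial epithelial BEAS2B cells pre-incubated 2 hr with test compounds at final concentrations, then transfected with poly I:C (1 μg/mL) using Oligofectamine. Cell-surface ICAM-1 quantified by cell-based ELISA with HRP-conjugated anti-rabbit IgG secondary.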

The target of data set [3] is HCK enzyme (Homo sapiens (Human), UniProt P08631). Briefly: HCK enzyme inhibition assay (FRET, Z'-LYTE). It counts as biochemical. Particulars: read-out: Enzyme Profile: IC50 Values HCK.
Data set [4] deals with cSrc enzyme (Homo sapiens (Human), UniProt P12931). The data set can be described thus: c-SRC enzyme inhibition assay (FRET, Z'-LYTE). It counts as biochemical. To be noted: read-out: Enzyme Profile: IC50 Values cSrc.
In data set [5] the test system is TNFα release in THP-1 cells. Briefly: LPS-induced TNFα release in THP-1 cells. Particulars: Homo sapiens; THP-1 cells, LPS 3 μg/mL, 4 hr; read-out: THP1 (LPS) TNFα IC50. It counts as cell-based. How it is done:
The inhibition of TNFα production was calculated at each concentration by comparison with vehicle control.

The test system of data set [6] is Differentiated U937 cells. The data set can be described thus: MTT assay: cell viability. It counts as cell-based, human. To be noted: 1 μg/ml; for d-U937 MTT Assay 4 h: 5% FCS; for d-U937 MTT Assay 24 h: 10% FCS. In a few lines: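 Differentiated U937 cells pre-incubated with compound either 4 hr in 5% FCS or 24 h in 10% FCS, then 1 hr MTT. Formazan dissolved in DMSO, absorbance at 550 nm. Percentage viability loss relative to 0.5% DMSO vehicle; apparent increases appear as negative percentages.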
(In general: Tetrazolium assays rely on reduction of a dye to a coloured formazan, in cell work by metabolically active cells.)

For data set [7], the target named is p38 MAPK alpha (MAPK14) (Homo sapiens (Human), UniProt Q16539). The data set can be described thus: Enzyme inhibition assay (FRET, Z-LYTE), p38 MAPK alpha via MAPKAP-K2 activation. It counts as biochemical. To be noted: read-out: Enzyme Profile: IC50 Values p38α. The method, boiled down: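 Recombinant p38 MAPKα was preincubated with compound 2 hr at RT. Its activity was measured indirectly through MAPKAP-K2 activation/phosphorylation, read by Z-LYTE FRET after 1 hr protease development. Phosphorylation was taken from the coumarin/fluorescein emission ratio.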

Data set [8] has as its target p38 MAPK γ (MAPK12) (Homo sapiens (Human), UniProt P53778). The data set can be described thus: Enzyme inhibition assay (FRET, Z-LYTE), p38 MAPK gamma. It counts as biochemical. Particulars: read-out: Enzyme Profile: IC50 Values p38γ. The method, boiled down: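 Recombinant phosphorylated human p38γ preincubated with compound 2 hr at RT in HEPES buffer, then reacted 1 hr with 2 μM FRET peptide and 100 μM ATP. Protease development 1 hr; phosphorylation derived from coumarin/fluorescein emission ratio.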

Data set [9] relates to HRV16. Briefly: Rhinovirus-titre assay. It counts as cell-based, human rhinovirus. Particulars: Human rhinovirus sp., HRV16; cell not marked b; test compounds 0.04 μg/mL per method (footnote b, 0.2 μg/mL); read-out: HRV titre (inhibitory %): % inhibition observed vs. HRV16 infection control.
Data set [10] has as its system TNFα release in d-U937 cells. The data set can be described thus: LPS-induced TNFα release in d-U937 cells. It counts as cell-based. Particulars: Homo sapiens, dU937, LPS 0.1 μg/mL, 4 hr, relative to 10 μg/mL BIRB796, read-out: d-U937 (LPS) TNFα REC50. The method, boiled down: as §1

Where only a bound is given, the exact number is not on record here.

Usually IC50 stands for the concentration at which inhibition is half-maximal. Usually inhibition stands for the change of the read-out against control, counted positive when it falls.

Regarding `COc1ccc(-n2nc(C(C)(C)C)cc2NC(=O)Nc2ccc(Oc3ccnc4[nH]c(=O)cnc34)c(Cl)c2Cl)cc1` [Example 19, 1-(3-(tert-Butyl)-1-(4-methoxyphenyl)-1H-pyrazol-5-yl)-3-(2,3-dichloro-4-((3-oxo-3,4-dihydropyrido[2,3-b]pyrazin-8-yl)oxy)phenyl)urea], the IC50 was determined as 1.6 nM in [1]; 0.6 nM in data set [2]; 4 nM in data set [3]; 7 nM in [4]; 2.1 nM in data set [5]; 2 nM in data set [7]. In addition, the IC50 in data set [8] was 35 nM. Besides, the “d-U937 MTT Assay 4 h” value in data set [6] was “− (− and + indicate the result is below and above the no significant effect threshold, respectively (<30% inhibition at a concentration of 1 μg/ml))”. The “d-U937 MTT Assay 24 h” value in data set [6] is “− (− and + indicate the result is below and above the no significant effect threshold, respectively (<30% inhibition at a concentration of 1 μg/ml))”. The inhibition at 0.04 µg/mL in data set [9] is 80%. The EC50 in data set [10] was found to be 1.3 nM.

For `COc1ccc(-n2nc(C(C)(C)C)cc2NC(=O)Nc2ccc(Oc3ccnc4[nH]c(=O)cnc34)c3ccccc23)cn1` [Example 20], the IC50 turned out to be 16 nM in data set [1]; 21 nM in data set [2]; 3 nM in [3]; 8 nM in data set [4]; 13 nM in [5]; 6 nM in data set [7]. For the same compound, in data set [8], the IC50 worked out at 44 nM. Further, the “d-U937 MTT Assay 4 h” value in data set [6] is “− (− and + indicate the result is below and above the no significant effect threshold, respectively (<30% inhibition at a concentration of 1 μg/ml))”. For the same compound, the “d-U937 MTT Assay 24 h” value in [6] was “− (− and + indicate the result is below and above the no significant effect threshold, respectively (<30% inhibition at a concentration of 1 μg/ml))”. Moreover, in [9], the inhibition at 0.04 µg/mL amounted to 36%. Besides, the EC50 in data set [10] was 3.4 nM.

As for `COc1ccc(-n2nc(C(C)(C)C)cc2NC(=O)Nc2ccc(Oc3ncnc4[nH]c(=O)cnc34)c3ccccc23)cc1` [Example 22], the half-maximal inhibitory concentration (IC50) in data set [1] was above 1730 nM; in data set [2], above 173 nM; in data set [3], 458 nM; in data set [4], 406 nM; in [5] it was above 1730 nM; in data set [7], 17 nM. In data set [8], the concentration for half-maximal inhibition (IC50) was determined as 2620 nM. Also, the “d-U937 MTT Assay 4 h” value in data set [6] was “− (− and + indicate the result is below and above the no significant effect threshold, respectively (<30% inhibition at a concentration of 1 μg/ml))”. The “d-U937 MTT Assay 24 h” value in data set [6] is “− (− and + indicate the result is below and above the no significant effect threshold, respectively (<30% inhibition at a concentration of 1 μg/ml))”. The inhibition at 0.04 µg/mL in [9] was determined as 8%. In addition, the EC50 in data set [10] was above 1730 nM.

On to `COc1ccc(-n2nc(C(C)(C)C)cc2NC(=O)Nc2ccc(Oc3ccnc4[nH]c(=O)n(C)c34)c3ccccc23)cn1` [Example 24, 1-(3-(tert-butyl)-1-(6-methoxypyridin-3-yl)-1H-pyrazol-5-yl)-3-(4-((1-methyl-2-oxo-2,3-dihydro-1H-imidazo[4,5-b]pyridin-7-yl)oxy)naphthalen-1-yl)urea], for which the IC50 in data set [1] is 11 nM; in data set [2], 12 nM; in data set [3] it was 5 nM; in data set [4], 16 nM; in [5], 4.4 nM; in data set [7] it was 7 nM. In addition, in [8], the IC50 stood at 126 nM. Moreover, in data set [6], the “d-U937 MTT Assay 4 h” value was “− (− and + indicate the result is below and above the no significant effect threshold, respectively (<30% inhibition at a concentration of 1 μg/ml))”. Besides, the “d-U937 MTT Assay 24 h” value in [6] was “− (− and + indicate the result is below and above the no significant effect threshold, respectively (<30% inhibition at a concentration of 1 μg/ml))”. The inhibition at 0.04 µg/mL in [9] was determined as 91%. For the same compound, the EC50 in data set [10] was 1.3 nM.

Take `COc1ccc(-n2nc(C(C)(C)C)cc2NC(=O)Nc2ccc(Oc3ccnc4[nH]c(=O)cnc34)c3ccccc23)cc1` [Example 25, 1-(3-(tert-butyl)-1-(4-methoxyphenyl)-1H-pyrazol-5-yl)-3-(4-((3-oxo-3,4-dihydropyrido[2,3-b]pyrazin-8-yl)oxy)naphthalen-1-yl)urea]: the half-inhibitory concentration (IC50) in data set [1] was 8.1 nM; in data set [2], 8.3 nM; in data set [3], 5 nM; in data set [4] it was 12 nM; in data set [5] it was 1.6 nM; in data set [7] it was 4 nM. In addition, in data set [8], the IC50 amounted to 50 nM. The “d-U937 MTT Assay 4 h” value in [6] is “− (− and + indicate the result is below and above the no significant effect threshold, respectively (<30% inhibition at a concentration of 1 μg/ml))”. Besides, in data set [6], the “d-U937 MTT Assay 24 h” value was “− (− and + indicate the result is below and above the no significant effect threshold, respectively (<30% inhibition at a concentration of 1 μg/ml))”. Besides, in [9], the inhibition at 0.04 µg/mL turned out to be 36%. Moreover, in [10], the EC50 is 1.8 nM.

Consider `CC(C)(C)c1cc(NC(=O)Nc2ccc(Oc3ccnc4[nH]c(=O)cnc34)c3ccccc23)n(-c2ccc(Cl)cc2)n1` [Example 27, 1-(3-(tert-butyl)-1-(4-chlorophenyl)-1H-pyrazol-5-yl)-3-(4-((3-oxo-3,4-dihydropyrido[2,3-b]pyrazin-8-yl)oxy)naphthalen-1-yl)urea], for which the IC50 in data set [1] amounted to 1.1 nM; in [2] it was 2.2 nM; in data set [3], 918 nM; in data set [4], 16 nM; in data set [5], 7.5 nM; in data set [7] it was 3 nM. In addition, the IC50 in [8] was 237 nM. The “d-U937 MTT Assay 4 h” value in [6] is “− (− and + indicate the result is below and above the no significant effect threshold, respectively (<30% inhibition at a concentration of 1 μg/ml))”. The “d-U937 MTT Assay 24 h” value in [6] is “− (− and + indicate the result is below and above the no significant effect threshold, respectively (<30% inhibition at a concentration of 1 μg/ml))”. In addition, the inhibition at 0.04 µg/mL in [9] was found to be 94%. The EC50 in [10] is 1.6 nM.

`Cc1ccc(-n2nc(C3CC3)cc2NC(=O)Nc2ccc(Oc3ccnc4[nH]c(=O)cnc34)c3ccccc23)cc1` [Example 28, 1-(3-cyclopropyl-1-(p-tolyl)-1H-pyrazol-5-yl)-3-(4-((3-oxo-3,4-dihydropyrido[2,3-b]pyrazin-8-yl)oxy)naphthalen-1-yl)urea]: the IC50 in data set [1] was 71 nM; in data set [2], above 184 nM; in data set [3], 9 nM; in data set [4] it was 22 nM; in data set [5], 161 nM; in [7], 2 nM. For the same compound, in data set [8], the 50% inhibitory concentration (IC50) is above 18000 nM. The “d-U937 MTT Assay 4 h” value in data set [6] was “− (− and + indicate the result is below and above the no significant effect threshold, respectively (<30% inhibition at a concentration of 1 μg/ml))”. For the same compound, in data set [6], the “d-U937 MTT Assay 24 h” value is “− (− and + indicate the result is below and above the no significant effect threshold, respectively (<30% inhibition at a concentration of 1 μg/ml))”. Further, the inhibition at 0.04 µg/mL in data set [9] worked out at 36%. For the same compound, the EC50 in data set [10] amounted to 40 nM.

For the compound `Cc1ccc(-n2nc(C3(C)CC3)cc2NC(=O)Nc2ccc(Oc3ccnc4[nH]c(=O)cnc34)c3ccccc23)cc1` [Example 29], the IC50 in [1] turned out to be 6.7 nM; in data set [2], 13 nM; in data set [3], 4 nM; in data set [4], 10 nM; in data set [5], 17 nM; in [7], 5 nM. The IC50 in data set [8] was found to be 19 nM. Moreover, the “d-U937 MTT Assay 4 h” value in [6] is “− (− and + indicate the result is below and above the no significant effect threshold, respectively (<30% inhibition at a concentration of 1 μg/ml))”. Besides, the “d-U937 MTT Assay 24 h” value in data set [6] was “− (− and + indicate the result is below and above the no significant effect threshold, respectively (<30% inhibition at a concentration of 1 μg/ml))”. Further, the inhibition at 0.04 µg/mL in data set [9] came out at 60%. In addition, the EC50 in [10] was 5.6 nM.
